Experimental findings from patent US20260209196A1, “AMIDINOUREA DERIVATIVES AND THEIR USE IN THE TREATMENT OF CANCER” (UNIVERSITE COTE D'AZUR, priority 2022, published 2026) are described below.

For the first series, the system named is A375. Kind of series: Cell viability of A375 melanoma cells by Trypan Blue exclusion. The series is classed as cell-based. To be noted: Homo sapiens, A-375; 5 μM, 24 h; viable cells as mean percentage of control cells ± SEM, N=3; read-out: Viab A375 5 μM/24 h. The method, then: The BRAFV600E mutant melanoma line A375 (CRL-1619) was purchased from ATCC (Manassas, VA, USA). The A375 were maintained in glutamine-containing DMEM supplemented with 10% heat-inactivated fetal bovine serum, penicillin (100 units/ml) and streptomycin ([…]).
(§1) Cell viability was measured by the Trypan Blue exclusion method. Briefly, cells washed with PBS were harvested by a 3-minute incubation in 0.05% trypsin before neutralization with serum containing medium. An aliquot of the cell suspension was then mixed 1:1 with a 0.4% Trypan blue solution and viable cells were counted within 5 minutes on Kova slides under an optical microscope. Results are expressed as the mean percentage of control cells±SEM. N=3
In the case of `N=C(NC(=O)Nc1ccccc1Cl)Nc1nc2ccccc2s1` [MTF504, N-benzo[d]thiazol-2-yl-N″-(2-chloroaniline-carbonyl)-guanidine], the viability at 5 µM was 26%.
As to `N=C(NC(=O)Nc1cccc2ccccc12)Nc1nc2ccccc2s1` [MTF418, N-benzo[d]thiazol-2-yl-N″-(naphtalen-1-amine-carbonyl)-guanidine], the viability at 5 µM was found to be 16.5%.
As for `Cc1ccccc1NC(=O)NC(=N)Nc1nc(C)c(C)s1` [MTF509, 4,5-dimethylthiazol-2-yl-N″-(2-methylaniline-carbonyl)-guanidine], the viability at 5 µM worked out at 23%.
Turning to `Cc1ccccc1NC(O)NC(=N)Nc1nc(-c2cccc([N+](=O)[O-])c2)cs1` (stereo not shown) [MTF515, N-4-(3-nitrophenyl) thiazol-2-yl-N″-(2-methylaniline-carbonyl)-guanidine], the viability at 5 µM came out at 64.9%.
On to `Cc1nc(NC(=N)NC(=O)Nc2cccc(Cl)c2)sc1C` [MTF506, 4,5-dimethylthiazol-2-yl-N″-(3-chloroaniline-carbonyl)-guanidine], for which the viability at 5 µM worked out at 64.3%.
For the molecule `Cc1nc(NC(=N)NC(=O)Nc2ccccc2)sc1C` [MTF496, 4,5-dimethylthiazol-2-yl-N″-(aniline-carbonyl)-guanidine], the viability at 5 µM stood at 67.7%.

Staying with this series, now noted: Homo sapiens, A-375; 5 μM, 48 h; viable cells as mean percentage of control cells ± SEM, N=3; read-out: Viab A375 5 μM/48 h.
On to `N=C(NC(=O)Nc1ccccc1Cl)Nc1nc2ccccc2s1` [MTF504, N-benzo[d]thiazol-2-yl-N″-(2-chloroaniline-carbonyl)-guanidine], for which the viability at 5 µM is 7.1%.
Take `N=C(NC(=O)Nc1cccc2ccccc12)Nc1nc2ccccc2s1` [MTF418, N-benzo[d]thiazol-2-yl-N″-(naphtalen-1-amine-carbonyl)-guanidine]: the viability at 5 µM worked out at 16.7%.
As to `Cc1ccccc1NC(=O)NC(=N)Nc1nc(C)c(C)s1` [MTF509, 4,5-dimethylthiazol-2-yl-N″-(2-methylaniline-carbonyl)-guanidine], the viability at 5 µM came to 13.6%.
As for `Cc1ccccc1NC(O)NC(=N)Nc1nc(-c2cccc([N+](=O)[O-])c2)cs1` (stereo not shown) [MTF515, N-4-(3-nitrophenyl) thiazol-2-yl-N″-(2-methylaniline-carbonyl)-guanidine], the viability at 5 µM was 28.7%.
Still for that read-out and setting: for `Cc1nc(NC(=N)NC(=O)Nc2cccc(Cl)c2)sc1C` [MTF506, 4,5-dimethylthiazol-2-yl-N″-(3-chloroaniline-carbonyl)-guanidine] the value was 54.5%.
Turning to `Cc1nc(NC(=N)NC(=O)Nc2ccccc2)sc1C` [MTF496, 4,5-dimethylthiazol-2-yl-N″-(aniline-carbonyl)-guanidine], the viability at 5 µM turned out to be 56.6%.

The series is the same for the next values; noted with them: Homo sapiens, A-375; 10 μM, 24 h; viable cells as mean percentage of control cells ± SEM, N=3; read-out: Viab A375 10 μM/24 h.
As for `N=C(NC(=O)Nc1cccc2ccccc12)Nc1nc2ccccc2s1` [MTF418, N-benzo[d]thiazol-2-yl-N″-(naphtalen-1-amine-carbonyl)-guanidine], the viability at 10 µM amounted to 41%.

Staying with this series, now noted: Homo sapiens, A-375; 10 μM, 48 h; viable cells as mean percentage of control cells ± SEM, N=3; read-out: Viab A375 10 μM/48 h.
Take `N=C(NC(=O)Nc1cccc2ccccc12)Nc1nc2ccccc2s1` [MTF418, N-benzo[d]thiazol-2-yl-N″-(naphtalen-1-amine-carbonyl)-guanidine]: the viability at 10 µM turned out to be 4.6%.

The same series, now with this note: after 24 hours of treatment; FIG. 5.
Take `N=C(NC(=O)Nc1ccccc1Cl)Nc1nc2ccccc2s1` [MTF504, N-benzo[d]thiazol-2-yl-N″-(2-chloroaniline-carbonyl)-guanidine]: the “decrease of melanoma cell viability versus CRO15 and MTF319” value is “more efficient than previously reported compounds”.

In another series the test system is normal human melanocytes. Kind of series: Toxicity on normal human melanocytes by Trypan blue counting. In kind it is cell-based. As to conditions: FIG. 3. The method, then: Normal human melanocytes were obtained from the foreskins of Caucasian children and grown in MCDB 153 medium supplemented with 2% fetal calf serum, 0.5 mg/ml hydrocortisone, 5 mg/ml insulin, 16 nM phorbol-12 myristate 13-acetate, 1 ng/ml basic fibroblast growth factor, 20 mg/ml bovine pituitary extract, […], and penicillin/streptomycin (100 U/ml/[…]). All cells were maintained in humidified incubators at 37° C. with 5% CO2.
as §1
For the molecule `N=C(NC(=O)Nc1ccccc1Cl)Nc1nc2ccccc2s1` [MTF504, N-benzo[d]thiazol-2-yl-N″-(2-chloroaniline-carbonyl)-guanidine], the “toxicity on normal human melanocytes” value was “absence of toxicity”.

The next series deals with NCI 60 cell panel. Kind of series: DTP-NCI assay (NCI 60 cell screen, single high dose). The series is classed as cell-based. To be noted: Homo sapiens, 48 h; single high dose 10^-5 M, full NCI 60 cell panel; growth relative to no-drug control and to time zero number of cells; read-out: DTP-NCI (mean of the percent growth of treated cells). The method, then:
The effect of 10 μM of MTF504 was monitored on a panel 60 cell lines representing nine distinct tumour types: leukemia, colon, lung, central nervous system, renal, melanoma, ovarian, breast and prostate. Briefly, the compound was sent to the US National Cancer Institute where its antineoplastic effects were monitored on the panel of cell lines after 48 hours of treatment following a standardized protocol.
All compounds submitted to the NCI 60 Cell screen are tested initially at a single high dose (10^-5 M) in the full NCI 60 cell panel. The results are reported as a mean of the percent growth of treated cells. The number reported is growth relative to the no-drug control, and relative to the time zero number of cells. This allows detection of […].
`N=C(NC(=O)Nc1ccccc1Cl)Nc1nc2ccccc2s1` [MTF504, N-benzo[d]thiazol-2-yl-N″-(2-chloroaniline-carbonyl)-guanidine]: the activity at 10 µM came out at 25.4%.
Turning to `N=C(NC(=O)Nc1cccc2ccccc12)Nc1nc2ccccc2s1` [MTF418, N-benzo[d]thiazol-2-yl-N″-(naphtalen-1-amine-carbonyl)-guanidine], the activity at 10 µM amounted to 26.1%.
The same measure, in the same setting: for `Cc1ccccc1NC(=O)NC(=N)Nc1nc(C)c(C)s1` [MTF509, 4,5-dimethylthiazol-2-yl-N″-(2-methylaniline-carbonyl)-guanidine] the value was 29.3%.
Take `Cc1ccccc1NC(O)NC(=N)Nc1nc(-c2cccc([N+](=O)[O-])c2)cs1` (stereo not shown) [MTF515, N-4-(3-nitrophenyl) thiazol-2-yl-N″-(2-methylaniline-carbonyl)-guanidine]: the activity at 10 µM was determined as 37.7%.
On to `Cc1nc(NC(=N)NC(=O)Nc2cccc(Cl)c2)sc1C` [MTF506, 4,5-dimethylthiazol-2-yl-N″-(3-chloroaniline-carbonyl)-guanidine], for which the activity at 10 µM was 67.7%.
In the case of `Cc1nc(NC(=N)NC(=O)Nc2ccccc2)sc1C` [MTF496, 4,5-dimethylthiazol-2-yl-N″-(aniline-carbonyl)-guanidine], the activity at 10 µM was 83.8%.
